Km data for two molecules are collected here from PMC9830863, “Aspergillus Niger thermostable Cytosine deaminase-dextran conjugates with enhanced structure stability, proteolytic resistance, and Antiproliferative activity” (BMC Microbiology, 2023).

Read-outs that look alike come from different tables or passages of the source.

Experiment [1] deals with Cytosine deaminase (CDA). The following applies: read-out: Free CDA / Km; free enzyme; Tris-HCl 50 mM pH 7.0, 37 °C. The source says: deamination, released 5-fluorouracil on Cytosine deaminase (CDA)
In experiment [2] the test system is Cytosine deaminase (CDA). The following applies: read-out: Free CDA / Km; free enzyme; Tris-HCl 50 mM pH 7.0, 37 °C. This is another data set of the same source.

Consider `Nc1nc(=O)[nH]cc1F` [5-fluorocytosine], for which the Km in the experiment on Cytosine deaminase (CDA) [1] was 220 µM. Turning to `Nc1cc[nH]c(=O)n1` [Cytosine], the Km in the experiment on Cytosine deaminase (CDA) [2] turned out to be 360 µM.
